Source: patent US20240116985A1, “STAPLED PEPTIDES AND METHODS THEREOF” (priority 2020, published 2024)
Read-outs that look alike come from different tables or passages of the source.

Assays:
[1] = target: T1, full-length beta-Catenin (Uniprot ID P35222) (Homo sapiens, UniProt P35222); test: Fluorescence polarization IC50 (beta-catenin / 5FAM-TCF4 10-53 competition); assay type: binding; details: fluorescence polarization; read-out: beta-Catenin FP IC50
T1 construct: 10 nM full-length beta-Catenin (Uniprot ID P35222)
T1 sequence (P35222 1-781): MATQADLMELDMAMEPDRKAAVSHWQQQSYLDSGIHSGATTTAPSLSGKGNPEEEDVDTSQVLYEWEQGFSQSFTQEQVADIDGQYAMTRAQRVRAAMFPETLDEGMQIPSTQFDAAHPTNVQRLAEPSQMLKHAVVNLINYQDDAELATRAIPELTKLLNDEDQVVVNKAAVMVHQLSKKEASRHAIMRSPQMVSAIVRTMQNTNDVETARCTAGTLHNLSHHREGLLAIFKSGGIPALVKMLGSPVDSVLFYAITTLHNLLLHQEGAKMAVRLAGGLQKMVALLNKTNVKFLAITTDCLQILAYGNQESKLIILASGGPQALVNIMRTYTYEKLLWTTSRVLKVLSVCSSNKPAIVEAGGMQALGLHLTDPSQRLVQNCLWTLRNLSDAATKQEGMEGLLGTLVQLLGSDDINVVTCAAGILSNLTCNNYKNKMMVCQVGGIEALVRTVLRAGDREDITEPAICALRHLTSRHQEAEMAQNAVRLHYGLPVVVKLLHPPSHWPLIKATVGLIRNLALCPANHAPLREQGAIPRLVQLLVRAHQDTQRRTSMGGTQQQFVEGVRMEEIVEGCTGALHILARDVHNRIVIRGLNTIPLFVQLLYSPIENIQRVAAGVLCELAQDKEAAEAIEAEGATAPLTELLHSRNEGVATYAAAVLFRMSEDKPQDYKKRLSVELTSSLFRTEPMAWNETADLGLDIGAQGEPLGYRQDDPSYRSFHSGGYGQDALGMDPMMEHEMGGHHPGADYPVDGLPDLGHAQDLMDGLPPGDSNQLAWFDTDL

[2] = target: T2, beta-catenin/TCF4 engagement (Homo sapiens, UniProt P35222); test: Nano-BRET target engagement assay (B-cat-Halo & TCF4-Luc in HEK293 cells); assay type: cell-based; details: read-out: NanoBRET Abs IC50
T2 construct: expressed in transfected cells; host or cells: HEK293
T2 sequence (P35222 1-781): T1 sequence (P35222 1-781)

[3] = test system: TCF/LEF luciferase Reporter in DLD1 cells; test: TCF reporter assay (DLD1 TCF/LEF luciferase reporter, Bright-Glo); assay type: cell-based; details: read-out: DLD1 4% Abs IC50, DLD1 reporter, 4%
How it was run: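 Readouts: Bright-Glo luciferase for reporter signal and CellTiter-Glo for cell viability, with absolute IC50 derived. The reporter clone came from lentiviral TCF/LEF-luciferase transduction of DLD1 cells, seeded 5000 cells/well in RPMI with 4% FBS and exposed overnight to serially diluted compounds.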

[4] = test system: COLO320DM cells; assay type: cell-based; details: COLO320DM cells, read-out: COLO320DM Proliferation Abs IC50
How it was run: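 COLO320DM cells at 250 cells/well in RPMI-1640 + 4% HI FBS, dosed after 18–22 h with a 7-point […] 1/2 dilution series from 20 uM down to 313 nM.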

Compound | IC50 [1] | IC50 ([2]; absolute IC50) | IC50 ([3]; absolute IC50) | IC50 ([4]; absolute IC50) | IC50 [2] | IC50 [3] | IC50 [4]
CC(=O)N1CCC[C@]12CC=CCCCC1(CCCC=CCCCOC(=O)N3CC[C@@](C(=O)N[C@@H](Cc4ccccc4C(F)(F)F)C(=O)N[C@@H](Cc4csc5ccccc45)C(=O)N[C@@H](CCC(N)=O)C(=O)N[C@@H](CC(C)C)C(=O)N[C@@H](Cc4c[nH]c5ccccc45)C(N)=O)(C3)NC(=O)[C@H](CC(C)C)NC(=O)[C@H](Cc3ccccc3)NC(=O)[C@H](C)NC(=O)[C@H](C)NC(=O)[C@H](Cc3cccc(C(=O)O)c3)NC(=O)[C@H](CC(=O)O)NC1=O)NC(=O)[C@H](CC(C)(C)C)NC(=O)[C@H](CC(=O)O)NC2=O (stereo partly drawn) [I-2394, Ac-PL3-Asp-Npg-B5-Asp-3COOHF-Ala-Ala-Phe-Leu-PyrS2-2F3MeF-BztA-Gln-Leu-Trp-NH2] | 535 nM | 2200 nM | 700 nM | > 20000 nM |  |  | 
CC(=O)N1CCN(C(=O)CC[C@@H]2NC(=O)[C@H](Cc3cccc(C(=O)O)c3)NC(=O)[C@H](CC(=O)O)NC(=O)C3(CCCC=CCCCOC(=O)N4CC[C@@](C(=O)N[C@@H](Cc5ccccc5C(F)(F)F)C(=O)N[C@@H](Cc5csc6ccccc56)C(=O)N[C@@H](C)C(N)=O)(C4)NC(=O)[C@H](CC(C)C)NC(=O)[C@H](Cc4ccccc4)NC(=O)[C@H](C)NC2=O)CCCC=CC[C@]2(CCCN2C(C)=O)C(=O)N[C@@H](CC(=O)O)C(=O)N[C@@H](CC(C)(C)C)C(=O)N3)CC1 (stereo partly drawn) [I-2319, Ac-PL3-Asp-Npg-B5-Asp-3COOHF-[AcPpz]GlnR-Ala-Phe-Leu-PyrS2-2F3MeF-BztA-Ala-NH2] | 5 nM | 1000 nM | 1700 nM | > 20000 nM |  |  | 
CC(=O)N1CCC[C@]12CC=CCCCC1(CCCC=CCCCOC(=O)N3CC[C@@](C(=O)N[C@@H](Cc4ccccc4C(F)(F)F)C(=O)N[C@@H](Cc4csc5ccccc45)C(=O)N[C@@H](CCC(N)=O)C(=O)N[C@@H](CC(C)C)C(=O)N[C@@H](Cc4ccccc4)C(N)=O)(C3)NC(=O)[C@H](CC(C)C)NC(=O)[C@H](Cc3ccccc3)NC(=O)[C@H](C)NC(=O)[C@H](C)NC(=O)[C@H](Cc3cccc(C(=O)O)c3)NC(=O)[C@H](CC(=O)O)NC1=O)NC(=O)[C@H](CC(C)(C)C)NC(=O)[C@H](CC(=O)O)NC2=O (stereo partly drawn) [I-2381, Ac-PL3-Asp-Npg-B5-Asp-3COOHF-Ala-Ala-Phe-Leu-PyrS2-2F3MeF-BztA-Gln-Leu-Phe-NH2] | 1470 nM | 2100 nM | 1100 nM | > 20000 nM |  |  | 
CC(=O)NCCCC[C@@H]1NC(=O)[C@H](Cc2ccccc2)NC(=O)[C@H](C)NC(=O)C(C)(C)NC(=O)[C@H](Cc2cccc(C(=O)O)c2)NC(=O)[C@H](CC(=O)O)NC(=O)C2(CCCC=CCCCOC(=O)N3CC[C@@](C(=O)N[C@@H](Cc4ccsc4)C(=O)N[C@@H](Cc4csc5ccccc45)C(=O)N[C@@H](C)C(=O)N[C@@H](C)C(N)=O)(C3)NC1=O)CCCC=CC[C@]1(CCCN1C(C)=O)C(=O)N[C@@H](CC(=O)O)C(=O)N[C@@H](CC(C)(C)C)C(=O)N2 (stereo partly drawn) [I-2578, Ac-PL3-Asp-Npg-B5-Asp-3COOHF-Aib-Ala-Phe-AcLys-PyrS2-3Thi-BztA-Ala-Ala-NH2] | 5 nM |  |  |  | 5500 nM | 4100 nM | 7700 nM
